Literature values, collected in patent US20210369737A1, “PROSTATE FUNCTION SUPPORT FORMULA” (Innovus Pharmaceuticals, Inc., priority 2017, published 2021).

How the values were obtained:
prostate cancer cell = conditions: in vitro
prostate tumors = conditions: TRAMP mice
[1] = in vivo
PSA = conditions: clinical trials
prostate cancer cells [2] = system: prostate cancer cells
[3] = system: human prostate tumor in vivo xenografts
prostate cancer cells [4] = conditions: in vitro
androgen receptor = target: T1, androgen receptor (Homo sapiens, UniProt P10275); conditions: in vitro
T1 sequence (P10275 1-920): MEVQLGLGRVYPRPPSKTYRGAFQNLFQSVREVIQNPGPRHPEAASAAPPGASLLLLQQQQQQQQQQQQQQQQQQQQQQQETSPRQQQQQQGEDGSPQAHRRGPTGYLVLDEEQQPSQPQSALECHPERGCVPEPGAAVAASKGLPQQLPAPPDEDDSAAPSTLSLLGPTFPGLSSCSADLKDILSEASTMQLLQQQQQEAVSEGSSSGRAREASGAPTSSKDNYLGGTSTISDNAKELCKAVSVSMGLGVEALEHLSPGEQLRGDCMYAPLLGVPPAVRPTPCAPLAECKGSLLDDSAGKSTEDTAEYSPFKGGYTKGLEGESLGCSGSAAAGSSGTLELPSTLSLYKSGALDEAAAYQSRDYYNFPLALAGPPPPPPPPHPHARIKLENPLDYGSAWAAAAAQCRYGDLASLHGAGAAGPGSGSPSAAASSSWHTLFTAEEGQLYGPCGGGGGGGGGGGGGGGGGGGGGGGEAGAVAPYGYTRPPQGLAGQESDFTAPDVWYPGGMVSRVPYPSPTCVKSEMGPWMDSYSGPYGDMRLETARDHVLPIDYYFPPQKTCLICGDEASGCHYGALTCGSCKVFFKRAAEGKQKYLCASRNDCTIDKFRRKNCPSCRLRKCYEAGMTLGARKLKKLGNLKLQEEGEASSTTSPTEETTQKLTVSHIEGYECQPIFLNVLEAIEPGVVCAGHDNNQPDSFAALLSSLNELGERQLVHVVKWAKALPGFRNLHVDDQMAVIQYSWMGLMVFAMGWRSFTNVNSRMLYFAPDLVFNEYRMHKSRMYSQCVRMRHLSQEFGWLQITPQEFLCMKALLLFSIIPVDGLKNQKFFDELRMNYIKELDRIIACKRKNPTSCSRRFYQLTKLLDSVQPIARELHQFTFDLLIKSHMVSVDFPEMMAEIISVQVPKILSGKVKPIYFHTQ

prostate cancer = conditions: in vitro and in vivo
[5] = system: prostate cancer and BPH cells; conditions: in vitro

CC[C@H](CC[C@@H](C)[C@H]1CC[C@H]2[C@@H]3CC=C4C[C@@H](O)CC[C@]4(C)[C@H]3CC[C@]12C)C(C)C [Beta-sitosterols, Beta-Sitosterol]
levels of DHT (BPH; clinical): decrease levels of DHT | urinary flow (BPH; clinical): significantly improve urinary flow | maintenance of improvements in follow-up (BPH; follow-up study, observation): 18 months | symptom scores (BPH; versus placebo, after three and six months of treatment): significant decrease in symptom scores

O=C(O[C@@H]1Cc2c(O)cc(O)cc2O[C@@H]1c1cc(O)c(O)c(O)c1)c1cc(O)c(O)c(O)c1 [EGCG]
androgen antagonism (prostate cancer cell): acts as an anti-androgen antagonist | prostate cancer cell proliferation and PSA production (prostate cancer cell): suppresses prostate cancer cell proliferation and production of prostate-specific antigen (PSA) | tumor size and development of prostate tumors (prostate tumors): reduces tumor size and delays development of prostate tumors

CC(C)=CCC/C(C)=C/C=C/C(C)=C/C=C/C(C)=C/C=C/C=C(C)/C=C/C=C(C)/C=C/C=C(\C)CCC=C(C)C [Lycopene]
safety status [1]: generally recognized as safe (GRAS) | PSA levels (PSA): reduction of PSA levels | antitumorigenic effect (prostate cancer cells [2]; animal studies): antitumorigenic effect | antioxidant response, proliferation, apoptosis, metastatic capacity of prostate cells (prostate cancer cells [2]; in vitro and in vivo): enhance the antioxidant response of prostate cells, inhibit proliferation, demonstrate chemopreventive effect induce apoptosis and decrease the metastatic capacity of prostate cancer cells

O=c1c(O)c(-c2ccc(O)c(O)c2)oc2cc(O)cc(O)c12 [Quercetin, 2-(3,4-dihydroxyphenyl)-3,5,7-trihydroxy-4H-chromen-4-one]
prostate weight and anti-tumor activity ([3]; in vivo, in combination with finasteride): effective in vivo in combination with finasteride to reduce prostate weight and anti-tumor activity | effect on human prostate tumor xenografts ([3]; mice): has an effect on human prostate tumor in vivo xenografts | apoptosis and caspase activation (prostate cancer cells [4]): promoted prostate cancer cells apoptosis and caspase activation | prostate cancer cell proliferation (prostate cancer cells [4]): inhibits prostate cancer cell proliferation | symptoms in CP/CPPS (CP/CPPS; clinical): symptomatic improvement | IPSS (CP/CPPS; randomized, double-blind, placebo controlled clinical trial): decrease in IPSS

[Se] [Selenium]
levels of p53 (androgen receptor): increase levels of p53 | activity of the androgen receptor (androgen receptor; prostate cancer cells): decrease the activity of the androgen receptor | prostate cancer risk, tumor progression, apoptosis (prostate cancer): reduce risk of prostate cancer, suppress tumor progression and cell apoptosis

[Zn] [Zinc]
apoptosis and antiproliferative effects [5]: induces apoptosis and antiproliferative effects

Vitamin E
prostate cancer risk, tumor progression, apoptosis (prostate cancer): reduce risk of prostate cancer, suppress tumor progression and cell apoptosis
